This is an account of results in patent US4425356A, “Lankacidin derivatives used in swine husbandry” (Takeda Chemical Industries, Ltd., priority 1980, dated 1984).

Converted amounts (≈) assume the structure as drawn. “And” between values parts separate entries of the source, which are not always exact repeats. Equal values may be shown once. Read-outs that look alike come from different tables or passages of the source. Some results are limits rather than exact numbers.

For one test, the system named is Treponema hyodysenteriae. In words: in vitro antibacterial activity (MIC, agar dilution method), Test Examples 1-3. Format: cell-based. Particulars: 37° C., 2 days, anaerobic; for MIC: Brachyspira hyodysenteriae, 48 h. As to the method: Several agents were tested for in vitro antibacterial activity against Treponema hyodysenteriae, the pathogenic bacteria causing swine dysentery, by the method of testing drug sensitivity of Treponema hyodysenteriae (Kashiwazaki et al. Abstracts of Papers presented at the 82nd Meeting of the Japanese Society of Veterinary Science, page 101, 1976).
(1) Strains: These strains belong to Treponema hyodysenteriae isolated
from the bloody mucous faeces of dysenteric pigs in Japan.
(2) Antimicrobial activity assay: Agar dilution method
(3) Inoculum size: A loopful of bacterial suspension (10^6 CFU/ml)
(4) Cultural conditions: GasPak anaerobic system (BBL), 37° C., 2
Typical agents among compound (I) were tested for in vitro antibacterial activity by the same method as in Test Example 1.
The experimental conditions are the same as in Test Example 1 (Table 1).
Agents of compound (I) were tested for in vitro antibacterial activity by the same method as in Test Example 1.

Test [1] deals with Treponema hyodysenteriae 78/A strain. Kind of test: efficacy against swine dysentery under experimental infection conditions in pigs (drug in feed), Test Examples 5-7. Format: in vivo, Landrace pigs. Particulars: 50 ppm in feed. As to the method: Lankacidin C was tested for efficacy against swine dysentery under experimental infection conditions. Thus, twelve 6-week-old Landrace pigs (4 per group) were used. The test drug was admixed to a concentration of 100 ppm with the domestically formulated starter feed for young pigs without antibiotics. The animals were provided with the ration ad libitum. Infection of the pigs was effected by direct intragastrical administration to the SPF pigs of an inoculum prepared by preliminary anaerobic cultivation of the Treponema hyodysenteriae 78/A strain on a 5% horse blood added agar plate, mashing together with the culture medium and admixing with 5% mucin added phosphate buffer. Colonic contents and mucosa were collected from pigs which developed typical signs of swine dysentery, and diluted two-fold with 5% mucin added phosphate buffer. The dilution was used as the final inoculum, and 100 ml of the dilution was directly injected into the stomach of test pigs at the age of 7 weeks (fasted for 24 hours before infection). The pigs were fed for 21 days following infection.
The data are each the mean value per head for the 21day period from
infection to autopsy. Different alphabetic letters on the same line
indicate that there is a significant difference between the data to which
they are attached (P <0.05).
Lankacidin C was tested at concentrations in feed of 100 ppm and lower by the same method as in Test Example 5, with carbadox, a commonly used anti-swine-dysentery agent, for comparison.
The anti-swine-dysentery effects of 10 ppm each of lankacidin A and lankacidin C 14-propionate were examined by the procedure of Test Example 6.

The mark [2] stands for this setting: strain 78/A, read-out: Minimum Inhibitory Concentration.
The mark [3] stands for this setting: strain CD1 (CD-1), read-out: Minimum Inhibitory Concentration.
Where [4] appears, read: strain DJ70P1, read-out: Minimum Inhibitory Concentration.
The mark [5] stands for this setting: strain MK-2, read-out: Minimum Inhibitory Concentration.

For the molecule `CC(=O)C(=O)NC1C=C(C)C=CC(OC(=O)c2ccccc2)CC=C(C)C=CC(O)CC2OC(=O)C1(C)C(=O)C2C` (stereo not shown) [Lankacidin C 8-benzoate, lankacidin C 8-benzoate], the MIC with Treponema hyodysenteriae (setting [2]), in the test with Treponema hyodysenteriae (setting [3]), in the test on Treponema hyodysenteriae (setting [4]) and with Treponema hyodysenteriae (setting [5]) was 0.1 µg/mL (≈ 0.177 µM) in each case.

Turning to `COC(=O)N/N=C/c1c[n+]([O-])c2ccccc2[n+]1[O-]` [Carbadox, carbadox, reference compound], in test [1], the “Number of pigs from which the pathogen was detected, in colonic mucosa” value turned out to be 0; the “Number of pigs from which the pathogen was detected, in feces” value is 0; the “Number of pigs showing colonic lesions” value is reported as 0. In addition, in test [1] (21-day test period), the “Number of days on which mucous bloody stool was observed” value was determined as 0 days and the “Number of pigs showing signs of infection/number of pigs used” value is recorded as 0/4. Also, in test [1] (21 day period, mean per head), the Body weight gain was 473 grams/day and 552 grams/day; the Feed conversion was 2.08 and 1.83; the Feed intake is 20.7 kg and 21.2 kg. Besides, in test [1] (mean per head), the “Body weight at the time of completion of test” value was 21.0 kg and 22.7 kg.

Regarding Spiramycin [reference compound], the “Minimum Inhibitory Concentration” value in the test with Treponema hyodysenteriae (strain 78/A), in the test on Treponema hyodysenteriae (strain CD1 (CD-1)), in the test on Treponema hyodysenteriae (strain DJ70P1) and in the test with Treponema hyodysenteriae (strain MK-2) was over 100 µg/mL throughout.

In the case of `CO[C@H]1C[C@H](O[C@H]2[C@H](C)[C@@H](O[C@@H]3O[C@H](C)C[C@H](N(C)C)[C@H]3O)[C@@H](C)C[C@@]3(CO3)C(=O)[C@H](C)[C@@H](O)[C@@H](C)[C@@H](C)OC(=O)[C@@H]2C)O[C@@H](C)[C@@H]1O` [Oleandomycin, reference compound], the MIC in the test on Treponema hyodysenteriae (setting [2]), with Treponema hyodysenteriae (setting [3]), with Treponema hyodysenteriae (setting [4]) and in the test on Treponema hyodysenteriae (setting [5]) was over 100 µg/mL each time.

On to `CCC(=O)OC1C=CC(C)=CC(NC(=O)C(C)=O)C2(C)C(=O)OC(CC(OC(=O)CC)C=CC(C)=CC1)C(C)C2=O` (stereo not shown) [Lankacidin C 8,14-dipropionate, lankacidin C 8,14-dipropionate], for which the MIC with Treponema hyodysenteriae (setting [2]) is 0.78 µg/mL (≈ 1.36 µM); in the test with Treponema hyodysenteriae (setting [3]), 1.56 µg/mL (≈ 2.73 µM); in the test with Treponema hyodysenteriae (setting [4]), 0.78 µg/mL (≈ 1.36 µM); with Treponema hyodysenteriae (setting [5]) it was 0.78 µg/mL (≈ 1.36 µM).

As for `CCC[C@@H]1C[C@@H](C(=O)N[C@@H]([C@H]2O[C@H](SC)[C@H](O)[C@@H](O)[C@H]2O)[C@@H](C)O)N(C)C1` [Lincomycin, reference compound], the MIC with Treponema hyodysenteriae (setting [2]), with Treponema hyodysenteriae (setting [3]), with Treponema hyodysenteriae (setting [4]) and in the test on Treponema hyodysenteriae (setting [5]) was 50 µg/mL (≈ 123 µM) throughout.

Regarding `CC(=O)OC1C=CC(C)=CC(NC(=O)C(C)=O)C2(C)C(=O)OC(CC(OC(C)=O)C=CC(C)=CC1)C(C)C2=O` (stereo not shown) [Lankacidin C 8,14-diacetate, lankacidin C 8,14-diacetate], the MIC was 3.13 µg/mL (≈ 5.76 µM) in the test on Treponema hyodysenteriae (setting [2]), 3.13 µg/mL (≈ 5.76 µM) in the test with Treponema hyodysenteriae (setting [3]), 3.13 µg/mL (≈ 5.76 µM) with Treponema hyodysenteriae (setting [4]) and 1.56 µg/mL (≈ 2.87 µM) in the test with Treponema hyodysenteriae (setting [5]).

`CO[C@@H]1[C@@H](O[C@@H]2O[C@H](C)[C@@H](O[C@H]3C[C@@](C)(O)[C@@H](OC(=O)CC(C)C)[C@H](C)O3)[C@H](N(C)C)[C@H]2O)[C@@H](CC=O)C[C@@H](C)[C@@H](O)/C=C/C=C/C[C@@H](C)OC(=O)C[C@H]1O` [Leucomycin, reference compound]: the MIC in the test with Treponema hyodysenteriae (setting [2]), in the test on Treponema hyodysenteriae (setting [3]), in the test with Treponema hyodysenteriae (setting [4]) and with Treponema hyodysenteriae (setting [5]) was over 100 µg/mL throughout.

With `CC(=O)C(=O)NC1C=C(C)C=CC(O)CC=C(C)C=CC(OC(=O)c2ccccc2)CC2OC(=O)C1(C)C(=O)C2C` (stereo not shown) [Lankacidin C 14-benzoate, lankacidin C 14-benzoate], the MIC with Treponema hyodysenteriae (setting [2]), with Treponema hyodysenteriae (setting [3]), in the test on Treponema hyodysenteriae (setting [4]) and in the test with Treponema hyodysenteriae (setting [5]) was 6.25 µg/mL (≈ 11.1 µM) in each case.

For `CCC(=O)OC1C=CC(C)=CC(NC(=O)C(C)=O)C2(C)C(=O)OC(CC(O)C=CC(C)=CC1)C(C)C2=O` (stereo not shown) [Lankacidin C 8-propionate, lankacidin C 8-propionate], the MIC in the test with Treponema hyodysenteriae (setting [2]), in the test with Treponema hyodysenteriae (setting [3]), in the test on Treponema hyodysenteriae (setting [4]) and in the test on Treponema hyodysenteriae (setting [5]) was 1.56 µg/mL (≈ 3.03 µM) in each case.

As for `CC(=O)C(=O)NC1C=C(C)C=CC(O)CC=C(C)C=CC(OC=O)CC2OC(=O)C1(C)C(=O)C2C` (stereo not shown) [Lankacidin C 14-formate, lankacidin C 14-formate], the MIC in the test with Treponema hyodysenteriae (setting [2]) was found to be 6.25 µg/mL (≈ 12.8 µM); in the test with Treponema hyodysenteriae (setting [3]) it was 12.5 µg/mL (≈ 25.6 µM); in the test with Treponema hyodysenteriae (setting [4]), 6.25 µg/mL (≈ 12.8 µM); with Treponema hyodysenteriae (setting [5]), 6.25 µg/mL (≈ 12.8 µM).

Turning to `CC(=O)C(=O)NC1C=C(C)C=CC(O)CC=C(C)C=CC(OC(=O)C(C)C)CC2OC(=O)C1(C)C(=O)C2C` (stereo not shown) [Lankacidin C 14-isobutyrate], the MIC in the test on Treponema hyodysenteriae (setting [2]) stood at 12.5 µg/mL (≈ 23.6 µM); with Treponema hyodysenteriae (setting [3]) it was 25 µg/mL (≈ 47.2 µM); in the test with Treponema hyodysenteriae (setting [4]), 12.5 µg/mL (≈ 23.6 µM); in the test with Treponema hyodysenteriae (setting [5]), 25 µg/mL (≈ 47.2 µM).

Take `CCCC(=O)OC1C=CC(C)=CC(NC(=O)C(C)=O)C2(C)C(=O)OC(CC(OC(=O)CCC)C=CC(C)=CC1)C(C)C2=O` (stereo not shown) [Lankacidin C 8,14-dibutyrate]: the MIC with Treponema hyodysenteriae (setting [2]) was 1.56 µg/mL (≈ 2.6 µM); with Treponema hyodysenteriae (setting [3]), 3.13 µg/mL (≈ 5.22 µM); with Treponema hyodysenteriae (setting [4]), 3.13 µg/mL (≈ 5.22 µM); in the test on Treponema hyodysenteriae (setting [5]), 3.13 µg/mL (≈ 5.22 µM).

Consider `CCC(=O)OC1C=CC(C)=CC(NC(=O)C(C)=O)C2(C)C(=O)OC(CC(OC(C)=O)C=CC(C)=CC1)C(C)C2=O` (stereo not shown) [Lankacidin A 8-propionate, lankacidin A 8-propionate], for which the MIC in the test with Treponema hyodysenteriae (setting [2]), with Treponema hyodysenteriae (setting [3]), in the test on Treponema hyodysenteriae (setting [4]) and in the test with Treponema hyodysenteriae (setting [5]) was 6.25 µg/mL (≈ 11.2 µM) in each case.

`CCCCC(=O)OC1C=CC(C)=CC(NC(=O)C(C)=O)C2(C)C(=O)OC(CC(O)C=CC(C)=CC1)C(C)C2=O` (stereo not shown) [Lankacidin C 8-valerate]: the MIC in the test with Treponema hyodysenteriae (setting [2]) was 1.56 µg/mL (≈ 2.87 µM); in the test on Treponema hyodysenteriae (setting [3]), 3.13 µg/mL (≈ 5.76 µM); in the test with Treponema hyodysenteriae (setting [4]), 1.56 µg/mL (≈ 2.87 µM); in the test with Treponema hyodysenteriae (setting [5]), 3.13 µg/mL (≈ 5.76 µM).

In the case of `CC(=O)C(=O)NC1C=C(C)C=CC(OC(=O)C(C)C)CC=C(C)C=CC(O)CC2OC(=O)C1(C)C(=O)C2C` (stereo not shown) [Lankacidin C 8-isobutyrate], the MIC in the test with Treponema hyodysenteriae (setting [2]) was found to be 6.25 µg/mL (≈ 11.8 µM); in the test with Treponema hyodysenteriae (setting [3]), 6.25 µg/mL (≈ 11.8 µM); with Treponema hyodysenteriae (setting [4]), 3.13 µg/mL (≈ 5.91 µM); in the test with Treponema hyodysenteriae (setting [5]), 6.25 µg/mL (≈ 11.8 µM).

On to `CCCCC(=O)OC1C=CC(C)=CCC(O)C=CC(C)=CC(NC(=O)C(C)=O)C2(C)C(=O)OC(C1)C(C)C2=O` (stereo not shown) [Lankacidin C 14-valerate], for which the MIC was 3.13 µg/mL (≈ 5.76 µM) in the test with Treponema hyodysenteriae (setting [2]), 6.25 µg/mL (≈ 11.5 µM) in the test on Treponema hyodysenteriae (setting [3]), 3.13 µg/mL (≈ 5.76 µM) in the test with Treponema hyodysenteriae (setting [4]) and 6.25 µg/mL (≈ 11.5 µM) in the test with Treponema hyodysenteriae (setting [5]).

As to `CCCC(=O)OC1C=CC(C)=CCC(O)C=CC(C)=CC(NC(=O)C(C)=O)C2(C)C(=O)OC(C1)C(C)C2=O` (stereo not shown) [Lankacidin C 14-butyrate], the MIC is 0.78 µg/mL (≈ 1.47 µM) in the test on Treponema hyodysenteriae (setting [2]), 1.56 µg/mL (≈ 2.95 µM) with Treponema hyodysenteriae (setting [3]), 1.56 µg/mL (≈ 2.95 µM) with Treponema hyodysenteriae (setting [4]) and 3.13 µg/mL (≈ 5.91 µM) in the test with Treponema hyodysenteriae (setting [5]).

Turning to `CC[C@H]1OC(=O)[C@H](C)[C@@H](O[C@H]2C[C@@](C)(OC)[C@@H](O)[C@H](C)O2)[C@H](C)[C@@H](O[C@@H]2O[C@H](C)C[C@H](N(C)C)[C@H]2O)[C@](C)(O)C[C@@H](C)C(=O)[C@H](C)[C@@H](O)[C@]1(C)O` [Erythromycin, reference compound], the MIC is over 100 µg/mL with Treponema hyodysenteriae (read-out: Minimum Inhibitory Concentration, strain 78/A); over 100 µg/mL in the test with Treponema hyodysenteriae (read-out: Minimum Inhibitory Concentration, strain CD1 (CD-1)); over 100 µg/mL in the test with Treponema hyodysenteriae (read-out: Minimum Inhibitory Concentration, strain DJ70P1); over 100 µg/mL with Treponema hyodysenteriae (read-out: Minimum Inhibitory Concentration, strain MK-2).

Take `CCCC(=O)OC1C=CC(C)=CC(NC(=O)C(C)=O)C2(C)C(=O)OC(CC(O)C=CC(C)=CC1)C(C)C2=O` (stereo not shown) [Lankacidin C 8-butyrate]: the MIC in the test with Treponema hyodysenteriae (setting [2]), in the test with Treponema hyodysenteriae (setting [3]), in the test on Treponema hyodysenteriae (setting [4]) and with Treponema hyodysenteriae (setting [5]) was 0.78 µg/mL (≈ 1.47 µM) each time.
